Key:
Assay in all cases: plasma and brain homogenate binding extent – biochemical, LC-MS, human, mouse, rat plasma, rat brain, ADME assay for V1a-R antagonist project, late-stage follow-up (AID 743030)
Settings in all cases: equilibrium dialysis, 16 h, at 2.5 µM; call rule not given here
Rat plasma proteins = tested on: Rat plasma proteins
Rat brain tissue = tested on: Rat brain tissue
Mouse plasma proteins = tested on: Mouse plasma proteins
Human plasma proteins = tested on: Human plasma proteins

Measured: fraction bound

O=C(C1CCN(c2ccc(Cl)cn2)CC1)N(CC1CC1)c1ccc(Cl)cc1
active: Rat plasma proteins 99.5% | Rat brain tissue > 99.5% | Mouse plasma proteins 97.7% | Human plasma proteins 99.4%

— PubChem BioAssay AID743030 (The Scripps Research Institute Molecular Screening Center, 2013)
